Values belong to the compound of their own block, whether it stands above or below them. Residues, ends and D or L forms follow the SMILES beside them.
Legend:
[1] = Cerebrospinal fluid stability of γ-MSH peptides; format: in vitro ADME; conditions: pooled human CSF, 2 μM peptide, 37°C, up to 72 h, residual cAMP signaling on TA MC3R
Procedure: (§1) For studies on the plasma stability of TA/SA γ-MSH, lyophilized citrated plasma from a pool of human donors was reconstituted in H2O as indicated by the manufacturer (# P9523, Sigma-Aldrich Chemie GmbH). Stability of human γ-MSH peptides was evaluated in fresh frozen human plasma (Interregional Blood Transfusion Swiss Red Cross Ltd, Epalinges, Swizerland). To this end, pooled samples of complete EDTA blood were centrifuged for 10 min at 1300 g, plasma was separated from buffy coat and erythrocytes and cleared by an additional 10 min centrifugation step at 1300 g. Cerebrospinal fluid pooled from ≥ 3 human donors was provided in liquid phase (# 991-19-P, Lee Biosolutions Inc., Maryland Heights, MO, USA). […]
(§2) The residual TA/SA or human γ-MSH signaling activities were simultaneously analyzed on Glo-sensor and TA or human MC3R transfected HEK293T cells, respectively. […] Maximal luminescence values for the residual γ-MSH ligand activities were determined for all time points in the degradation time course, were baseline subtracted and normalized to the maximal luminescence value at time point zero for the same ligand in the same plate. All degradation time courses were performed in triplicate and read on three separate 96 well plates. […] Degradation curves were established by non-linear regression curve fit (least square fit) and half-lives determined from one phase decay curves. […]

[2] = Plasma stability of TA/SA γ-MSH peptides in reconstituted human plasma; format: in vitro ADME; conditions: 37°C
Procedure: For studies on the plasma stability of TA/SA γ-MSH, lyophilized citrated plasma from a pool of human donors was reconstituted in H2O as indicated by the manufacturer (# P9523, Sigma-Aldrich Chemie GmbH). Stability of human γ-MSH peptides was evaluated in fresh frozen human plasma (Interregional Blood Transfusion Swiss Red Cross Ltd, Epalinges, Swizerland). To this end, pooled samples of complete EDTA blood were centrifuged for 10 min at 1300 g, plasma was separated from buffy coat and erythrocytes and cleared by an additional 10 min centrifugation step at 1300 g. Cerebrospinal fluid pooled from ≥ 3 human donors was provided in liquid phase (# 991-19-P, Lee Biosolutions Inc., Maryland Heights, MO, USA). Aliquots of both body fluids were stored at -80°C until use. Samples of reconstituted plasma or CSF were thawed on ice, the pH of fresh frozen plasma was adjusted to 7.4 by addition of triethanolamine to a final concentration of 50 mM, and 45 μl aliquots were distributed to 1.5 ml Protein LoBind Tubes (Eppendorf AG, Hamburg, Germany). The γ-MSH synthetic peptides were pre-diluted in H2O to 20 μM, and 5 μl each were added on ice to 45 μl pre-laid samples of plasma or CSF. The γ-MSH starting concentration in degradation assays was thus 2 μM. Immediately after mixing, a first 5 μl aliquot for time point zero was removed, tubes were then transferred to a 37°C heat block, and further 5 μl aliquots were collected from plasma and CSF samples after various incubation times up to 68 h and 72.5 h, respectively. For control purposes, γ-MSH peptides were also diluted in H2O to a concentration of 2 μM and aliquots were removed after the corresponding incubation times at 37°C. All collected 5 μl aliquots were immediately diluted in 45 μl H2O and frozen on dry ice in 96 well V-bottom non-binding microplates (Greiner Bio-One Vacuette Schweiz GmbH, St. Gallen, Schweiz) to stop further degradation. After completion of degradation time courses, collection plates were stored at -80°C.
as §2

[3] = Cerebrospinal fluid pooled from ≥ 3 human donors; conditions: 37°C, up to 72.5 h
[4] = Plasma stability of human γ-MSH peptides in fresh frozen human plasma; format: in vitro ADME; conditions: 37°C, non-glycosylated synthetic peptides
Procedure: as §1, §2

TA PC2 (with mouse 7B2) = assay: supernatants of HEK293T cells transfected with TA PCSK2 and mouse 7B2 plasmids, 5 mM CaCl2, pH 5.5 (pH 4.1 to 8.1); conditions: human (HEK293T); Tyto alba alba enzyme
TA PC1/3 = assay: supernatants of HEK293T cells transfected with TA PCSK1 plasmid, 5 mM CaCl2, pH 5.5 (pH 4.1 to 8.1); conditions: human (HEK293T); Tyto alba alba enzyme
[5] = supernatants of mock-transfected HEK293T cells (IRES GFP-plasmid only); conditions: human (HEK293T)

half-life in human CSF [1]: > 7.5 h
stability in human cerebrospinal fluid ([1]; triplicate): stable for several hours
plasma half-life ([2]; reconstituted pooled human plasma, 2 μM peptide, residual cAMP signaling on TA MC3R, one-phase decay, triplicate): 0.45 h
Compound: CSCC[C@H](NC(=O)[C@@H](NC(=O)[C@@H](N)Cc1ccc(O)cc1)C(C)C)C(=O)N[C@@H](CO)C(=O)N[C@@H](Cc1c[nH]cn1)C(=O)N[C@@H](Cc1ccccc1)C(=O)N[C@@H](CCCNC(=N)N)C(=O)N[C@@H](Cc1c[nH]c2ccccc12)C(=O)N[C@@H](CC(N)=O)C(=O)N[C@@H](CCCCN)C(=O)N[C@@H](Cc1ccccc1)C(=O)NCC(N)=O [SA / TA γ2-MSH] (H-YVMSHFRWNKFG-NH2)

not cleaved [3]: completely stable in CSF (up to 72 h)
Compound: YVMSHFRWNKFGRRNSSSSSSSSSSSSSSSSSSGGH

plasma stability, fold increased over human γ2-MSH [4]: > 100 fold
Compound: CSCC[C@H](NC(=O)[C@@H](NC(=O)[C@@H](N)Cc1ccc(O)cc1)C(C)C)C(=O)NCC(=O)N[C@@H](Cc1c[nH]cn1)C(=O)N[C@@H](Cc1ccccc1)C(=O)N[C@@H](CCCNC(=N)N)C(=O)N[C@@H](Cc1c[nH]c2ccccc12)C(=O)N[C@@H](CC(=O)O)C(=O)N[C@@H](CCCNC(=N)N)C(=O)N[C@@H](Cc1ccccc1)C(=O)NCC(=O)N[C@@H](CCCNC(=N)N)C(=O)N[C@@H](CCCNC(=N)N)C(=O)N[C@@H](CC(N)=O)C(=O)N[C@@H](CO)C(=O)N[C@@H](CO)C(=O)N[C@@H](CO)C(=O)N[C@@H](CO)C(=O)NCC(=O)N[C@@H](CO)C(=O)N[C@@H](CO)C(=O)NCC(=O)N[C@@H](C)C(=O)NCC(=O)N[C@@H](CCC(N)=O)C(=O)O [human γ3-MSH (wt)] (H-YVMGHFRWDRFGRRNSSSSGSSGAGQ-OH)

not cleaved [3]: completely stable in CSF (up to 72 h)
Compound: YVMSHFRWNKFGRRNSSSSSSSSSSSSSGGH

plasma half-life, fold longer than that of γ2-MSH ([2]; reconstituted human plasma): 70 fold
plasma half-life, fold longer than that of γ3-MSH containing 5 serines ([2]; reconstituted human plasma): > 6 fold
plasma half-life (t1/2) ([2]; reconstituted lyophilized citrated pooled human plasma, 2 μM peptide, up to 68 h, residual cAMP signaling on TA MC3R/Glo-sensor HEK293T (luminescence), one-phase decay, triplicate): > 30 h
Compound: CSCC[C@H](NC(=O)[C@@H](NC(=O)[C@@H](N)Cc1ccc(O)cc1)C(C)C)C(=O)N[C@@H](CO)C(=O)N[C@@H](Cc1c[nH]cn1)C(=O)N[C@@H](Cc1ccccc1)C(=O)N[C@@H](CCCNC(=N)N)C(=O)N[C@@H](Cc1c[nH]c2ccccc12)C(=O)N[C@@H](CC(N)=O)C(=O)N[C@@H](CCCCN)C(=O)N[C@@H](Cc1ccccc1)C(=O)NCC(=O)N[C@@H](CCCNC(=N)N)C(=O)N[C@@H](CCCNC(=N)N)C(=O)N[C@@H](CC(N)=O)C(=O)N[C@@H](CO)C(=O)N[C@@H](CO)C(=O)N[C@@H](CO)C(=O)N[C@@H](CO)C(=O)N[C@@H](CO)C(=O)N[C@@H](CO)C(=O)N[C@@H](CO)C(=O)N[C@@H](CO)C(=O)N[C@@H](CO)C(=O)N[C@@H](CO)C(=O)N[C@@H](CO)C(=O)N[C@@H](CO)C(=O)N[C@@H](CO)C(=O)NCC(=O)NCC(=O)N[C@@H](Cc1c[nH]cn1)C(=O)O [TA γ3-MSH 13 S] (H-YVMSHFRWNKFGRRNSSSSSSSSSSSSSGGH-OH)

not cleaved [3]: completely stable in CSF (up to 72 h)
Compound: YVMSHFRWNKFGRRNSSSSSGGH

cleaved bond (TA PC2 (with mouse 7B2)): R-AMC
cleaved bond (TA PC1/3): R-AMC
not cleaved [5]: no activity across the entire pH range
Compound: Pyr-ERTKR-AMC (L-pyroglutamyl-(arginine-threonine-lysine-arginine)-7-amino-3-methylcoumarin)
